From patent US9334289B2, “Cephem compound having catechol or pseudo-catechol structure” (SHIONOGI & CO., LTD., priority 2011, dated 2016)

Legend:
Type in all cases: cell-based
[1] = test system: P. aeruginosa SR24; test: MIC, CLSI broth microdilution, Test Example 1; conditions: Pseudomonas aeruginosa, SR24; Ceftazidime resistance strain; cation-adjusted Mueller Hinton broth containing human apo-transferrin; 5×10^5 cfu/mL; read-out: Minimum Inhibitory Concentration (MIC) P. aeruginosa SR24
[2] = test system: A. baumannii SR27323; test: MIC, CLSI broth microdilution, Test Example 1; conditions: Acinetobacter baumannii, SR27323; OXA-23, OXA-58 carbapenemase producing strain; cation-adjusted Mueller Hinton broth containing human apo-transferrin; 5×10^5 cfu/mL; read-out: Minimum Inhibitory Concentration (MIC) A. baumannii SR27323
How it was run: (§1)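 Inoculum 5×10^5 cfu/mL in cation-adjusted Mueller Hinton broth containing human apo-transferrin, following CLSI procedure. MIC reported in μg/mL.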

[3] = test system: P. aeruginosa SR24837; test: MIC, CLSI broth microdilution, Test Example 1; conditions: Pseudomonas aeruginosa, SR24837; PER-1 ESBL producing strain; cation-adjusted Mueller Hinton broth containing human apo-transferrin; 5×10^5 cfu/mL; read-out: Minimum Inhibitory Concentration (MIC) P. aeruginosa SR24837
How it was run: as §1

[4] = test system: E. coli ATCCBAA-199; test: MIC, CLSI broth microdilution, Test Example 1; conditions: Escherichia coli, ATCCBAA199; SHV-3 ESBL producing strain; cation-adjusted Mueller Hinton broth containing human apo-transferrin; 5×10^5 cfu/mL; read-out: Minimum Inhibitory Concentration (MIC) E. coli ATCC BAA-199
How it was run: as §1

[5] = test system: P. aeruginosa SR27060; test: MIC, CLSI broth microdilution, Test Example 1; conditions: Pseudomonas aeruginosa, SR27060; IMP-1 MBL producing strain (carbapenem resistance strain); cation-adjusted Mueller Hinton broth containing human apo-transferrin; 5×10^5 cfu/mL; read-out: Minimum Inhibitory Concentration (MIC) P. aeruginosa SR27060
How it was run: as §1

[6] = test system: E. coli ATCCBAA-200; test: MIC, CLSI broth microdilution, Test Example 1; conditions: Escherichia coli, ATCCBAA200; SHV-4 ESBL producing strain; cation-adjusted Mueller Hinton broth containing human apo-transferrin; 5×10^5 cfu/mL; read-out: Minimum Inhibitory Concentration (MIC) E. coli ATCC BAA-200
How it was run: as §1

[7] = test system: K. pneumoniae ATCCBAA-1705; test: MIC, CLSI broth microdilution, Test Example 1; conditions: Klebsiella pneumoniae, ATCCBAA1705; KPC-2 carbapenemase producing strain; cation-adjusted Mueller Hinton broth containing human apo-transferrin; 5×10^5 cfu/mL; read-out: Minimum Inhibitory Concentration (MIC) K. pneumoniae ATCCBAA-1705
How it was run: as §1

[8] = test system: P. aeruginosa SR01332; test: MIC, CLSI broth microdilution, Test Example 2; conditions: Pseudomonas aeruginosa, SR01332; VIM-11 MBL producing strain (carbapenem resistance strain); cation-adjusted Iso-Sensitest broth containing human Apo-transferrin; 5×10^5 cfu/mL; read-out: Minimum Inhibitory Concentration (MIC) P. aeruginosa SR01332
How it was run: (§2)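 Broth microdilution per CLSI, inoculum 5×10^5 cfu/mL, in cation-adjusted Iso-Sensitest broth supplemented with human Apo-transferrin. MIC reported in μg/mL.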

[9] = test system: P. aeruginosa SR01335; test: MIC, CLSI broth microdilution, Test Example 2; conditions: Pseudomonas aeruginosa, SR01335; VIM-1 like MBL producing strain (carbapenem resistance strain); cation-adjusted Iso-Sensitest broth containing human Apo-transferrin; 5×10^5 cfu/mL; read-out: Minimum Inhibitory Concentration (MIC) P. aeruginosa SR01335
How it was run: as §2

[10] = test system: E. coli SR01337; test: MIC, CLSI broth microdilution, Test Example 2; conditions: Escherichia coli, SR01337; TEM-1 ESBL producing strain; cation-adjusted Iso-Sensitest broth containing human Apo-transferrin; 5×10^5 cfu/mL; read-out: Minimum Inhibitory Concentration (MIC) E. coli SR01337
How it was run: as §2

[11] = test system: E. coli ATCCBAA-196; test: MIC, CLSI broth microdilution, Test Example 2; conditions: Escherichia coli, ATCCBAA196; TEM-10 ESBL producing strain; cation-adjusted Iso-Sensitest broth containing human Apo-transferrin; 5×10^5 cfu/mL; read-out: Minimum Inhibitory Concentration (MIC) E. coli ATCC BAA-196
How it was run: as §2

[12] = test system: E. cloacae NCTC13464; test: MIC, CLSI broth microdilution, Test Example 2; conditions: Enterobacter cloacae, NCTC13464; CTX-M group 9 ESBL producing strain; cation-adjusted Iso-Sensitest broth containing human Apo-transferrin; 5×10^5 cfu/mL; read-out: Minimum Inhibitory Concentration (MIC) E. cloacae NCTC 13464
How it was run: as §2

[13] = test system: K. pneumoniae ATCC700603; test: MIC, CLSI broth microdilution, Test Example 2; conditions: Klebsiella pneumoniae, ATCC700603; SHV18 ESBL producing strain; cation-adjusted Iso-Sensitest broth containing human Apo-transferrin; 5×10^5 cfu/mL; read-out: Minimum Inhibitory Concentration (MIC) K. pneumoniae ATCC 700603
How it was run: as §2

[14] = test system: A. baumannii SR01331; test: MIC, CLSI broth microdilution, Test Example 2; conditions: Acinetobacter baumannii, SR01331; PER-1, OXA-23.51 ESBL- & OXA-type carbapenemase producing strain; cation-adjusted Iso-Sensitest broth containing human Apo-transferrin; 5×10^5 cfu/mL; read-out: Minimum Inhibitory Concentration (MIC) A. baumannii SR01331
How it was run: as §2

[15] = test system: E. coli ATCCBAA-200; test: MIC, CLSI broth microdilution, Test Example 2; conditions: Escherichia coli, ATCCBAA200; SHV-4 ESBL producing strain; cation-adjusted Iso-Sensitest broth containing human Apo-transferrin; 5×10^5 cfu/mL; read-out: Minimum Inhibitory Concentration (MIC) E. coli ATCC BAA-200
How it was run: as §2

Row | MIC [1] | MIC [2] | MIC [3] | MIC [4] | MIC [5] | MIC [6] | MIC [7] | Structure (SMILES) | MIC [8] | MIC [9] | MIC [10] | MIC [11] | MIC [12] | MIC [13] | MIC [14] | MIC [15]
1 | ≤ 0.031 µg/mL | 1 µg/mL | 0.25 µg/mL | 0.25 µg/mL | 0.25 µg/mL | 0.5 µg/mL | ≤ 0.031 µg/mL | CC(C)(O/N=C(\C(=O)N[C@@H]1C(=O)N2C(c3nnn[n-]3)=C(C[N+]3(CCNC(=O)c4ccc(O)c(O)c4F)CCCC3)CS[C@H]12)c1csc(N)n1)C(=O)[O-].[Na+] [Compound I-54] | – | – | – | – | – | – | – | –
2 | 0.25 µg/mL | 1 µg/mL | 2 µg/mL | 0.25 µg/mL | 1 µg/mL | 0.5 µg/mL | ≤ 0.031 µg/mL | CC(C)(O/N=C(\C(=O)N[C@@H]1C(=O)N2C(c3nnn[n-]3)=C(C[N+]3(CCNC(=O)c4cc(O)c(O)cc4Cl)CCCC3)CS[C@H]12)c1csc(N)n1)C(=O)[O-].[Na+] [Compound I-50] | – | – | – | – | – | – | – | –
3 | 0.25 µg/mL | 2 µg/mL | 0.5 µg/mL | 0.25 µg/mL | 1 µg/mL | 1 µg/mL | ≤ 0.031 µg/mL | CC(C)(O/N=C(\C(=O)N[C@@H]1C(=O)N2C(c3nnn[n-]3)=C(C[N+]3(CCNC(=O)c4cc(O)c(O)cc4F)CCCC3)CS[C@H]12)c1csc(N)n1)C(=O)[O-].[Na+] [Compound I-55] | – | – | – | – | – | – | – | –
4 | 0.125 µg/mL | 0.25 µg/mL | 0.5 µg/mL | 0.125 µg/mL | 0.5 µg/mL | 0.25 µg/mL | ≤ 0.031 µg/mL | CC(C)(O/N=C(\C(=O)N[C@@H]1C(=O)N2C(c3nn[n-]n3)=C(C[N+]3(Cc4nnc(-c5ccc(O)c(O)c5Cl)o4)CCCC3)CS[C@H]12)c1csc(N)n1)C(=O)[O-].[Na+] [Compound I-45] | – | – | – | – | – | – | – | –
5 | ≤ 0.031 µg/mL | 0.125 µg/mL | 0.063 µg/mL | 0.5 µg/mL | 0.25 µg/mL | 1 µg/mL | ≤ 0.031 µg/mL | CC(C)(O/N=C(\C(=O)N[C@@H]1C(=O)N2C(c3nnn[n-]3)=C(C[n+]3ccc(-c4ccc(O)c(O)c4Cl)cc3)CS[C@H]12)c1csc(N)n1)C(=O)[O-].[Na+] [Compound I-79] | – | – | – | – | – | – | – | –

Row | Structure (SMILES) | MIC [1] | MIC [2] | MIC [3] | MIC [4] | MIC [5] | MIC [6] | MIC [7] | MIC [8] | MIC [9] | MIC [10] | MIC [11] | MIC [12] | MIC [13] | MIC [14] | MIC [15]
6 | CC(C)(O/N=C(\C(=O)N[C@@H]1C(=O)N2C(c3nnn[n-]3)=C(C[N+]3(C)[C@@H]4CC[C@H]3C[C@@H](NC(=O)c3ccc(O)c(O)c3Cl)C4)CS[C@H]12)c1nc(N)sc1Cl)C(=O)[O-].[Na+] (some centres unmarked) [Compound I-86] | 0.063 µg/mL | 2 µg/mL | ≤ 0.031 µg/mL | 0.5 µg/mL | 0.25 µg/mL | 0.5 µg/mL | 0.063 µg/mL | 8 µg/mL | 4 µg/mL | ≤ 0.031 µg/mL | 0.125 µg/mL | 0.5 µg/mL | 0.25 µg/mL | 0.5 µg/mL | 1 µg/mL
